Converted amounts (≈) assume the structure as drawn.
Tests used:
[1] = biological target: Induced myeloid leukemia cell differentiation protein Mcl-1 (Homo sapiens, UniProt Q07820); assay: Inhibition of Mcl-1 (172-327) (unknown origin) using BIOTIN-AHXGQVGRQLAIIGDDINR-amide peptide by TR-FRET based BAK peptide displacement assay
NCI-H929 [2] = assay: Cytotoxicity against human NCI-H929 cells assessed as cell viability measured after 72 hrs incubation by CellTiterGlo assay; format: functional, cell-based; conditions: NCI-H929, 72 h
[3] = Kinetic solubility of the compound in pH 7.4 buffer measured after 24 hrs by LC-UV analysis; format: physicochemical; conditions: read-out: Kinetic_solubility
NCI-H929 [4] = assay: Cytotoxicity against human NCI-H929 cells assessed as […] by measuring caspase 3/7 activity measured after 6 hrs by luminescence assay; format: functional, cell-based; conditions: NCI-H929, 6 h
Bcl-2-like protein 1 = Bcl-2-like protein 1 (Homo sapiens, UniProt Q07817); assay: Inhibition of Bcl-xl (1-212) (unknown origin) using BIOTIN-AHXAHXGQVGRQLAIIGDDINR-amide peptide by TR-FRET based BAK peptide displacement assay
Sequence of Bcl-2-like protein 1 (Q07817 whole entry): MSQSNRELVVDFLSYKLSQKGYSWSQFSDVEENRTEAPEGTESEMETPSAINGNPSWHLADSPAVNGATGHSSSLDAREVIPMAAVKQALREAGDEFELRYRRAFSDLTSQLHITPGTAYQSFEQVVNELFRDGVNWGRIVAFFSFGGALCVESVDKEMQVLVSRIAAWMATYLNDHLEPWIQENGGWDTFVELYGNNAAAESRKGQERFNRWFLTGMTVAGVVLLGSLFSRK

[5] = Passive permeability of compound at pH 7.4 incubated for 4 hrs by PAMPA assay; format: ADME; conditions: read-out: permeability
[6] = Metabolic stability in rat liver S9 fraction assessed as intrinsic clearance; format: ADME, subcellular; conditions: read-out: CLH
[7] = Metabolic stability in rat liver S9 fraction assessed as half life; format: ADME, subcellular
[8] = Metabolic stability in human liver S9 fraction assessed as intrinsic clearance; format: ADME, subcellular; conditions: for microsomal CLint: liver S9 fraction, read-out: CLH
[9] = Metabolic stability in human liver S9 fraction assessed as half life; format: ADME, subcellular; conditions: for half-life: liver S9 fraction
[10] = Metabolic stability in mouse liver S9 fraction assessed as half life; format: ADME, subcellular
[11] = Metabolic stability in mouse liver S9 fraction assessed as intrinsic clearance; format: ADME, subcellular; conditions: read-out: CLH

Sequence of Induced myeloid leukemia cell differentiation protein Mcl-1 (Q07820 whole entry): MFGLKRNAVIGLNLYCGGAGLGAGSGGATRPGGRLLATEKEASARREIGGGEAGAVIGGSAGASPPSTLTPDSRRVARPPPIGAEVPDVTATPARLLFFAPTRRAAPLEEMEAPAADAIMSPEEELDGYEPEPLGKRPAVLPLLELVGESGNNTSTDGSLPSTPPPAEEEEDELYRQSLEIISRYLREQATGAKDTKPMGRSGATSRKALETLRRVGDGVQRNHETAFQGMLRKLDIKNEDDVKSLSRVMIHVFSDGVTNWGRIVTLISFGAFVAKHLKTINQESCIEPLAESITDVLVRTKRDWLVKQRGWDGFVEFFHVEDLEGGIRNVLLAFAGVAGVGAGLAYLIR

SMILES | IC50 [1] [nM] | solubility kinetic at 24 h [3] [µM] | Papp at 4 h [5] [×10⁻⁶ cm/s] | IC50 (NCI-H929 [2]) [nM] | IC50 (NCI-H929 [4]) [nM] | other results
CCOc1cc(Oc2cc(C)c(Cl)c(C)c2)cc2c1OCC(=O)N[C@H]1CC[C@H](CC1)CC(=O)N[C@@H](CC(C)C)C(=O)N[C@H](Cc1cccnc1)C(=O)N[C@H](C(=O)O)Cc1ccc(cc1)OC2 | 31000 | > 80 | 5.3 | – | 1100 | –
CCOc1cc(Oc2cccc(C(F)(F)F)c2)cc2c1OCC(=O)N[C@H]1CC[C@H](CC1)CC(=O)N[C@@H](c1ccccc1)C(=O)N[C@H](Cc1ccccc1)C(=O)NCCc1ccc(cc1)OC2 | 12000 | – | – | 180 | – | –
CCOc1cc(Oc2cc(C)c(Cl)c(C)c2)cc2c1OCC(=O)N[C@H]1CC[C@H](CC1)CC(=O)N[C@@H](c1ccccc1)C(=O)N[C@H](Cc1cccnc1)C(=O)N[C@H](C(=O)O)Cc1ccc(cc1)OC2 | 13000 | > 80 | 3.9 | – | 480 | –
CCOc1cc(Oc2cccc3ccccc23)cc2c1OCC(=O)N[C@H]1CC[C@H](CC1)CC(=O)N[C@@H](c1ccccc1)C(=O)N[C@H](Cc1ccccc1)C(=O)NCCc1ccc(cc1)OC2 | 12000 | – | – | 170 | – | –
CCOc1cc(Oc2cc(C)cc(C)c2)cc2c1OCC(=O)N[C@H]1CC[C@H](CC1)CC(=O)N[C@@H](c1ccccc1)C(=O)N[C@H](Cc1ccccc1)C(=O)NCCc1ccc(cc1)NC2 | 9100 | < 2 | – | – | 94 | –
CCOc1cc(Oc2cc(C)c(Cl)c(C)c2)cc2c1OCC(=O)N[C@H]1CC[C@H](CC1)CC(=O)N[C@@H](c1ccccc1)C(=O)N[C@H](Cc1cccnc1)C(=O)NCCc1ccc(cc1)OC2 | 14000 | < 2 | 5.5 | – | 45 | –
CCOc1cc(Oc2cc(C)c(Cl)c(C)c2)cc2c1OCC(=O)N[C@H]1CC[C@H](CC1)CC(=O)N[C@@H]([C@@H](C)OC)C(=O)N[C@H](Cc1ccncc1)C(=O)NCCc1ccc(cc1)OC2 | 9400 | < 2 | – | – | 1400 | –
CCOc1cc(Oc2cc(C)c(Cl)c(C)c2)cc2c1OCC(=O)N[C@H]1CC[C@H](CC1)CC(=O)N[C@@H](CC(C)C)C(=O)N[C@H](Cc1cccnc1)C(=O)N[C@@H](C(=O)O)Cc1ccc(cc1)OC2 | 16000 | 11 (≈ 10.2 µg/mL) | 1.5 | – | 410 | –
CCOc1cc(C#Cc2ccc(OC)cc2)cc2c1OCC(=O)N[C@H]1CC[C@H](CC1)CC(=O)N[C@@H](c1ccccc1)C(=O)N[C@H](Cc1ccccc1)C(=O)NCCc1ccc(cc1)OC2 | 8000 | – | – | 1400 | – | –
CCOc1cc(Oc2cc(C)c(Cl)c(C)c2)cc2c1OCC(=O)N[C@H]1CC[C@H](CC1)CC(=O)N[C@@H](c1ccccc1)C(=O)N1CCC[C@@H]1C(=O)NCCc1ccc(cc1)OC2 | 18000 | < 2 | 7.3 | – | 540 | –
CCOc1cc(Oc2cccc(Cl)c2)cc2c1OCC(=O)N[C@H]1CC[C@H](CC1)CC(=O)N[C@@H](c1ccccc1)C(=O)N[C@H](Cc1ccccc1)C(=O)NCCc1ccc(cc1)OC2 | 22000 | – | – | 330 | – | –

These reach a lower IC50 [1]. Values come first.

IC50 [1] [nM] | solubility kinetic at 24 h [3] [µM] | Papp at 4 h [5] [×10⁻⁶ cm/s] | SMILES | IC50 (NCI-H929 [2]) [nM] | IC50 (NCI-H929 [4]) [nM] | other results
7700 | > 80 | 2 | CCOc1cc(Oc2cc(C)cc(C)c2)cc2c1OCC(=O)N[C@H]1CC[C@H](CC1)CC(=O)N[C@@H](c1ccccc1)C(=O)N[C@H](Cc1ccccc1)C(=O)N[C@H](C(=O)O)Cc1ccc(cc1)NC2 | – | 630 | –
7300 | – | – | CCOc1cc(C#Cc2cccc(F)c2)cc2c1OCC(=O)N[C@H]1CC[C@H](CC1)CC(=O)N[C@@H](c1ccccc1)C(=O)N[C@H](Cc1ccccc1)C(=O)NCCc1ccc(cc1)OC2 | 2200 | – | –
5700 | > 80 | < 1 | CCOc1cc(Oc2cc(C)c(Cl)c(C)c2)cc2c1OCC(=O)N[C@H]1CC[C@H](CC1)CC(=O)N[C@@H](c1ccccc1)C(=O)N[C@H](Cc1ccccc1)C(=O)N[C@H](C(=O)O)Cc1ccc(cc1)NC2 | – | 1100 | –
5300 | < 2 | – | CCOc1cc(Oc2cc(C)c(Cl)c(C)c2)cc2c1OCC(=O)N[C@H]1CC[C@H](CC1)CC(=O)N[C@@H](c1ccccc1)C(=O)N[C@H](Cc1ccccc1)C(=O)NCCc1ccc(cc1)NC2 | – | 57 | –
5300 | < 2 | – | CCOc1cc(Oc2cc(C)c(Cl)c(C)c2)cc2c1OCC(=O)N[C@H]1CC[C@H](CC1)CC(=O)N[C@@H](CCS(C)(=O)=O)C(=O)N[C@H](Cc1ccncc1)C(=O)NCCc1ccc(cc1)OC2 | – | > 10000 | –
5300 | < 2 | < 1 | CCOc1cc(Oc2cc(C)c(Cl)c(C)c2)cc2c1OCC(=O)N[C@H]1CC[C@H](CC1)CC(=O)N[C@@H](c1ccccc1)C(=O)N[C@H](Cc1ccncc1)C(=O)NCCc1ccc(cc1)OC2 | – | 35 | –
1800 | – | – | CCOc1cc(C#Cc2ccc(C(C)(C)C)cc2)cc2c1OCC(=O)N[C@H]1CC[C@H](CC1)CC(=O)N[C@@H](c1ccccc1)C(=O)N[C@H](Cc1ccccc1)C(=O)NCCc1ccc(cc1)OC2 | 9900 | – | –
1600 | – | – | CCOc1cc(Oc2cc(C)cc(C)c2)cc2c1OCC(=O)N[C@H]1CC[C@H](CC1)CC(=O)N[C@@H](c1ccccc1)C(=O)N[C@H](Cc1ccccc1)C(=O)NCCc1ccc(cc1)OC2 | 56 | – | IC50 (Bcl-2-like protein 1): > 10000 nM
1500 | < 2 | – | CCOc1cc(Oc2cc(C)c(Cl)c(C)c2)cc2c1OCC(=O)N[C@H]1CC[C@H](CC1)CC(=O)N[C@@H](c1ccccc1)C(=O)N[C@H](Cc1ccccc1)C(=O)NCCc1ccc(cc1)OC2 | 41 | 60 | IC50 (Bcl-2-like protein 1): > 10000 nM
130 | < 2 | – | CCOc1cccc2c1OCC(=O)N[C@H]1CC[C@H](CC1)CC(=O)N[C@@H](c1ccccc1)C(=O)N[C@H](Cc1ccccc1)C(=O)NCCc1ccc(cc1)OC2 | > 10000 | – | microsomal CLint [6]: 30 µL/min/mg; half-life [7]: 23 min; microsomal CLint [8]: 82 µL/min/mg; half-life [9]: 8 min; half-life [10]: 17 min; microsomal CLint [11]: 41 µL/min/mg; IC50 (Bcl-2-like protein 1): > 10000 nM
80 | < 2 | – | CCOc1cccc2c1OCC(=O)N[C@H]1CC[C@H](CC1)CC(=O)N[C@@H](c1ccccc1)C(=O)N[C@H](Cc1ccccc1)C(=O)N[C@H](C(=O)NC)Cc1ccc(cc1)NC2 | – | – | microsomal CLint [6]: 18 µL/min/mg; half-life [7]: 39 min; CLH ([8]; s9): 17 µL/min/mg; t1/2 ([9]; s9): 17 min; half-life [10]: 20 min; microsomal CLint [11]: 35 µL/min/mg; IC50 (Bcl-2-like protein 1): > 10000 nM
50 | < 2 | – | CCOc1cccc2c1OCC(=O)N[C@H]1CC[C@H](CC1)CC(=O)N[C@@H](c1ccccc1)C(=O)N[C@H](Cc1ccccc1)C(=O)N[C@H](C(=O)NC)Cc1ccc(cc1)OC2 | – | – | microsomal CLint [6]: 15 µL/min/mg; half-life [7]: 47 min; microsomal CLint [8]: 19 µL/min/mg; half-life [9]: 37 min; half-life [10]: 19 min; microsomal CLint [11]: 36 µL/min/mg; IC50 (Bcl-2-like protein 1): > 10000 nM
